Like-named read-outs stand apart in the source and are kept apart here.
Tests used:
[1] = tested on: MKN45 (RCB1001) human gastric tumor cell-derived xenograft (CDX) model; test: Anti-tumor activity in MKN45 gastric mouse xenograft (CDX) model (Example 8); type: in vivo; details: Compound A 10 mg/kg oral once per day
Experimental: All mouse studies were approved by the Institutional Animal Care and Use Committee (IACUC) based on guidelines from the National Institutes of Health (NIH). Mice were maintained under pathogen-free conditions, and food and water were provided ad libitum.
The anti-tumor effect of Compound A and irinotecan hydrochloride as single-agents or in combination was assessed in the MKN45 (RCB1001) human gastric tumor cell-derived xenograft (CDX) model. MKN45 was expanded in RPMI1640 with 10% fetal bovine serum. Cells were free of mycoplasma and authenticated by STR profiling, and ten million cells in log growth phase were resuspended in Hanks Balanced Salt Solution containing 50% Matrigel and implanted subcutaneously into the flank of each recipient female Crl:NU-Foxn1nu mouse. Mice were housed in microisolator cages with corn cob bedding with additional enrichment consisting of sterile nesting material (Innovive) and Bio-huts (Bio-Serv). Water (Innovive) and diet (Teklad Global 19% Protein Extruded Diet 2919, Irradiated) were provided ad libitum. The environment was maintained on a 12-hour light cycle at approximately 68-72° F. and 40-60% relative humidity.
Tumor Volume (TV) was calculated using the following formula: TV (mm^3)=(width×width×length)/2. Tumor growth inhibition (TGI) was calculated by [(TV controlfinal−TV treatedfinal)/(TV controlfinal−TV controlinitial)×100]. TV was analyzed for statistical significance utilizing GraphPad Prism version 10.2.2. Repeated Measures 2-Way ANOVA with Dunnet's Multiple Comparisons was utilized, and P-values were derived from data collected on the date of Vehicle group termination and were considered statistically significant if less than 0.05.
Mean tumor volume at dosing start was approximately 190 mm^3, with six mice randomized to each treatment group. Mice were dosed orally, once per day, with Vehicle, Compound A at 10 mg/kg, or dosed for 3 consecutive days followed by 4 days holiday by intraperitoneal (IP) injection of Compound B at 5 mg/kg or 10 mg/kg, or combination of Compound A and Compound B. The vehicle group was a combination of Vehicle A (for Compound A, 0.5% 400 cps methylcellulose with 0.5% Tween-80 in sterile water) and Vehicle B (for irinotecan hydrochloride, Saline).

[2] = tested on: NCI-H2170; test: 10-day proliferation screen with Compound A pre-treatment (Example 3); type: cell-based; details: Homo sapiens, read-out: Growth IC50
Experimental: (§1) A 10-day proliferation screen was performed in 15 pancreatic, non-small cell lung, and bladder cancer cell lines: 10 MTAP null and 5 MTAP wild-type. Optimal cell seeding for all cell lines was determined by assessing the growth over a range of seeding densities in a 384-well format to identify conditions that permitted proliferation for 10 days. Cells were then plated at the optimal seeding density in the presence of 20-150 nM of Compound A or DMSO vehicle control. Cells were incubated at 37° C. with 5% CO2 for 4 days to allow for target engagement of the pre-treatment compound. Maintaining the pre-treatment condition, cells were also treated with an 11-point, three-fold titration series of compounds from a chemically diverse library of 424 compounds. The combination compound concentrations ranged from 0.2 nM to 14,679 nM. A plate of cells was harvested at the time of combination compound addition to quantify the number of cells at the start of the combination (T0). For cell quantification, the harvested cells were lysed with CellTiter-Glo (CTG) (Promega) reagent according to the manufacturer's protocol and the chemiluminescent signal was detected on a Synergy Neo plate reader (ThermoFisher, serial #140715A). CTG estimates cell number through detection of cellular ATP levels. Cells were incubated with the drug combinations at 37° C. with 5% CO2 for an additional 6 days for a total of a 10-day assay including the pre-treatment. Cells were then lysed with CTG and the chemiluminescent signal was measured. CTG values obtained after the 10-day treatment were background subtracted, expressed as a percent of the T0 value, and plotted against compound concentration. Data were fit with a four-parameter equation to generate concentration response curves. Growth IC50 values and maximal growth inhibition were compared between the DMSO and the Compound A pre-treated cells for each combination titration. Combination hit calling was based on the observation of >2-fold shift in growth IC50 and/or greater than 20% […] in growth inhibition.

[3] = tested on: NCI-H838; test: as above; type: cell-based; details: Homo sapiens, read-out: Growth IC50
Experimental: as §1

[4] = tested on: SW900; test: as above; type: cell-based; details: Homo sapiens, read-out: Growth IC50
Experimental: as §1

[5] = tested on: RT112/84; test: as above; type: cell-based; details: Homo sapiens, read-out: Growth IC50
Experimental: as §1

[6] = tested on: OE33; test: as above; type: cell-based; details: Homo sapiens, read-out: Growth IC50
Experimental: as §1

[7] = tested on: NCI-H520; test: as above; type: cell-based; details: Homo sapiens, read-out: Growth IC50
Experimental: as §1

[8] = tested on: UMUC11; test: as above; type: cell-based; details: read-out: Growth IC50
Experimental: as §1

[9] = tested on: NCI-H2228; test: as above; type: cell-based; details: Homo sapiens, read-out: Growth IC50
Experimental: as §1

[10] = tested on: UMUC5; test: as above; type: cell-based; details: read-out: Growth IC50
Experimental: as §1

[11] = tested on: TCCSUP; test: as above; type: cell-based; details: Homo sapiens, TCC-SUP, read-out: Growth IC50
Experimental: as §1

[12] = tested on: J82; test: as above; type: cell-based; details: Homo sapiens, read-out: Growth IC50
Experimental: as §1

[13] = tested on: HuP-T4; test: as above; type: cell-based; details: Homo sapiens, read-out: Growth IC50
Experimental: as §1

Nc1nc(=O)n(-c2ccccc2Cl)c2nc(C(F)(F)F)ccc12 [Compound A]
Day 25 TGI [1]: 56% | Tumor Regression Rate on Day 25 [1]: 0% | Day 25 TV (mean) ([1]; initial TV 191, vehicle 1396): 726 mm^3 | TGI ([1]; irinotecan 5 or 10 mg/kg IP 3 days on/4 days off): 56%

NS(=O)(=O)c1ccc(S(=O)(=O)Nc2cccc3c(Cl)c[nH]c23)cc1 [Indisulam, N-(3-chloro-1H-indol-7-yl)benzene-1,4-disulfonamide]
IC50 ([2]; NCI-H2170, Cmpd A pre-treatment 80 nM): 5550 nM | IC50 ([2]; NCI-H2170, DMSO pre-treatment): 7170 nM | IC50 ([3]; NCI-H838, Cmpd A pre-treatment 20 nM): 539 nM | IC50 ([3]; NCI-H838, Cmpd A pre-treatment 150 nM): 342 nM | IC50 ([3]; NCI-H838, DMSO pre-treatment (control for 20 nM Cmpd A)): 1050 nM | IC50 ([3]; NCI-H838, DMSO pre-treatment (control for 150 nM Cmpd A)): 807 nM | IC50 ([4]; SW900, Cmpd A pre-treatment 80 nM): 1100 nM | IC50 ([4]; SW900, DMSO pre-treatment): 2280 nM | IC50 ([5]; RT112/84, Cmpd A pre-treatment 150 nM): 229 nM | IC50 ([5]; RT112/84, DMSO pre-treatment): 913 nM | IC50 ([6]; OE33, Cmpd A pre-treatment 150 nM): 5370 nM | IC50 ([6]; OE33, DMSO pre-treatment): 12100 nM | IC50 ([7]; NCI-H520, Cmpd A pre-treatment 80 nM): 790 nM | IC50 ([7]; NCI-H520, DMSO pre-treatment): 727 nM | IC50 ([8]; Cmpd A pre-treatment 150 nM): 1270 nM | IC50 ([8]; DMSO pre-treatment): 864 nM | IC50 ([9]; NCI-H2228, Cmpd A pre-treatment 80 nM): 191 nM | IC50 ([9]; NCI-H2228, DMSO pre-treatment): 167 nM | IC50 ([10]; Cmpd A pre-treatment 150 nM): 807 nM | IC50 ([10]; DMSO pre-treatment): 1830 nM | IC50 ([11]; Cmpd A pre-treatment 150 nM): 6080 nM | IC50 ([11]; DMSO pre-treatment): 8660 nM | IC50 ([12]; J82, Cmpd A pre-treatment 150 nM): 7100 nM | IC50 ([12]; J82, DMSO pre-treatment): 12500 nM | IC50 ([13]; HuP-T4, Cmpd A pre-treatment 150 nM): 549 nM | IC50 ([13]; HuP-T4, DMSO pre-treatment): 1070 nM
